According to patent publication US20170291890A1 (Epizyme, Inc., priority 2014, published 2017):

target: T1, KDM5A (Homo sapiens, UniProt P29375); assay: KDM5A Assay (SAMDI mass spectrometry demethylase assay); type: biochemical; settings: C-terminal FLAG-tagged KDM5A 1-1090; class symbols; read-out: 5A IC50
T1 construct: C-terminal FLAG-tagged KDM5A^1-1090 was purchased from BPS Biosciences; FLAG (C); purchased BPS Biosciences
T1 sequence (P29375 1-1090): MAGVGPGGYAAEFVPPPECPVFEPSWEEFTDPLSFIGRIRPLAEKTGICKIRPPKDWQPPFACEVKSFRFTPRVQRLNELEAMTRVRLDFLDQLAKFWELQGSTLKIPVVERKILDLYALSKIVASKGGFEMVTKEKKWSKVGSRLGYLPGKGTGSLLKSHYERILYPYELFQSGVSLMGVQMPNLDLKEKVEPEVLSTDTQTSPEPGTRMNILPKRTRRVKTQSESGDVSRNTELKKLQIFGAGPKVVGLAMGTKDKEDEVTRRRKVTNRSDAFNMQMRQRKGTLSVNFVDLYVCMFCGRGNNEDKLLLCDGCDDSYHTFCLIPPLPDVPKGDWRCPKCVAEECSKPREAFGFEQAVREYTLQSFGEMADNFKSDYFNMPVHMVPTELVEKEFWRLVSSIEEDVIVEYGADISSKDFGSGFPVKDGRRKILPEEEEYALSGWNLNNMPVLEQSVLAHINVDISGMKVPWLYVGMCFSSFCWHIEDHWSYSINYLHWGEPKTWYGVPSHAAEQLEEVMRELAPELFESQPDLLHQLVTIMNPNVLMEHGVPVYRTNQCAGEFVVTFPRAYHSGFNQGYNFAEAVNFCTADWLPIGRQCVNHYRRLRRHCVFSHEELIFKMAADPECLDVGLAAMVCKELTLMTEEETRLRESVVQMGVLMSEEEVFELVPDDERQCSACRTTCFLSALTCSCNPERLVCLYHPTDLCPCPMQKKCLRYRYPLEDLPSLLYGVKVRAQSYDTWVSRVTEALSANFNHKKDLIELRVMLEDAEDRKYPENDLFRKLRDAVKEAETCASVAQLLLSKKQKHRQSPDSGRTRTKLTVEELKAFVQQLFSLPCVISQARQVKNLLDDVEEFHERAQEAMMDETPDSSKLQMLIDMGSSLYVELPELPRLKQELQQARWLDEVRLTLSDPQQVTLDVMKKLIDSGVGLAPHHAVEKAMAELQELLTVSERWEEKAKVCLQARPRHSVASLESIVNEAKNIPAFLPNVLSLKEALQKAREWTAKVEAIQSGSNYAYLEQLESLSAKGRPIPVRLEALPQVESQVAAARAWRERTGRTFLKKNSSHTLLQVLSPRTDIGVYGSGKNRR
Procedure, shortened: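 FLAG-tagged KDM5A 1-1090 (20 nM) preincubated 30 min with compound in pH 8.0 HEPES buffer with ascorbate, Fe(II), TCEP, then reacted 150 min at 25 °C with H3K4me3 peptide (250 nM) and 2-oxoglutarate (15 μM). Formic acid-quenched; SAMDI-MS substrate/product AUC conversion; IC50 from dose-response.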

IC50 | SMILES
1000 to 10000 nM | Cc1c(Nc2cnccc2C(=O)O)cnn1C1CCNCC1 [Compound 68, 3-((5-methyl-1-(piperidin-4-yl)-1H-pyrazol-4-yl)amino)isonicotinic acid]
1000 to 10000 nM | CNC(=O)c1ccc(-n2ncc(Nc3cnccc3C(=O)O)c2C)cc1 [Compound 58, 3-((5-methyl-1-(4-(methylcarbamoyl)phenyl)-1H-pyrazol-4-yl)amino) isonicotinic acid]
1 to 100 nM | CN(C)CCn1cc(-c2ccccc2)c(Nc2cnccc2C(=O)O)n1 [Compound 64, 3-((1-(2-(dimethylamino)ethyl)-4-phenyl-1H-pyrazol-3-yl)amino)isonicotinic acid]
1 to 100 nM | O=C(O)c1ccncc1Nc1nn(CCC(F)(F)F)cc1-c1ccccc1 [Compound 73, 3-((4-phenyl-1-(3,3,3-trifluoropropyl)-1H-pyrazol-3-yl)amino) isonicotinic acid]
1000 to 10000 nM | Cc1cc(Nc2cnccc2C(=O)O)n(C2CCOCC2)n1 [Compound 78, 3-((3-methyl-1-(tetrahydro-2H-pyran-4-yl)-1H-pyrazol-5-yl)amino) isonicotinic acid]

Further lines, the molecule ahead of its results:

SMILES | IC50
Cn1nc(-c2ccc(Cl)cc2)cc1Nc1cnccc1C(=O)O [Compound 24, 3-((3-(4-Chlorophenyl)-1-methyl-1H-pyrazol-5-yl)amino) isonicotinic acid] | 1 to 100 nM
CN1CCN(CCn2ncc(-c3ccccc3)c2Nc2cnccc2C(=O)O)CC1 [Compound 35, 3-((1-(2-(4-methylpiperazin-1-yl)ethyl)-4-phenyl-1H-pyrazol-5-yl)amino)isonicotinic acid] | 1 to 100 nM
Cn1cc(Nc2cnccc2C(=O)O)c(-c2ccccc2)n1 [Compound 13, 3-((1-methyl-3-phenyl-1H-pyrazol-4-yl)amino) isonicotinic acid] | 1000 to 10000 nM
Cc1nn(-c2ccccc2)cc1Nc1cnccc1C(=O)O [Compound 19, 3-((3-Methyl-1-phenyl-1H-pyrazol-4-yl)amino)isonicotinic acid] | 1 to 100 nM
Cn1ncc(-c2cccc(F)c2)c1Nc1cnccc1C(=O)O [Compound 10, 3-((4-(3-Fluorophenyl)-1-methyl-1H-pyrazol-5-yl)amino) isonicotinic acid] | 10000 to 100000 nM
